From patent publication US7977375B2, “Antibiotic and method of production thereof” (Helmholtz-Zentrum Für Infektionsforschung GmbH, priority 2004, dated 2011) come the findings set out here.

Test [1] deals with MRSA 2 (methicillin-resistant S. aureus, clinical isolate). Put plainly: agar diffusion method, inhibition zone. The test is classed as cell-based, Staphylococcus aureus. The protocol:
(§1) The agar diffusion method employing Mueller-Hinton (MH) agar (Difco Laboratories) was used to determine effectiveness against bacteria and yeasts. Sterile paper disks (Schleicher & Schüell, Germany) were seeded with 10 μl crude extract or with a solution of purified macrolactin (final compound concentration on the disk 50 μg) and then placed on the surface of MH-agar plates that had been seeded beforehand with a suspension of overnight culture of the test microorganisms at a concentration of 10^5 cells/ml.

The test system of test [2] is MRSA 3 (methicillin-resistant S. aureus, clinical isolate). Nature of the test: agar diffusion method, inhibition zone. The test is classed as cell-based, Staphylococcus aureus. The protocol: as §1
For test [3], the system named is S. aureus # (own collection, methicillin-sensitive control strain). Put plainly: agar diffusion method, inhibition zone. The test is classed as cell-based, Staphylococcus aureus. The protocol:
as §1
On the technique in general: Agar diffusion results depend on both activity and mobility in agar.

For test [4], the system named is S. aureus DSMZ 1104. Put plainly: agar diffusion method, inhibition zone. In kind it is cell-based, Staphylococcus aureus. The protocol:
as §1

Test [5] concerns E. faecalis ATCC 29212. Nature of the test: agar diffusion method, inhibition zone. The test is classed as cell-based, Enterococcus faecalis. The protocol:
as §1

The subject of test [6] is E. faecalis VRAS E305. Put plainly: agar diffusion method, inhibition zone. The test is classed as cell-based, Enterococcus faecalis. The protocol:
as §1

Test [7] relates to E. faecium VRAR E315. Nature of the test: agar diffusion method, inhibition zone. The test is classed as cell-based, Enterococcus faecium. The protocol: as §1
Test [8] deals with B. cepacia SCV 141. Put plainly: agar diffusion method, inhibition zone. The test is classed as cell-based, Burkholderia cepacia. Particulars: 18 hours at 37° C., per disk 10 μl crude extract, 50 μg macrolactin, 78 μg erythromycin, 10 μg ampicillin; for Inhibition zone: MH agar. The protocol:
as §1
The B. cepacia strain used, which is a clinical isolate from a cystic fibrosis patient, forms small colonies (SCV 141).

In test [9] the test system is S. aureus # (non-methicillin-resistant reference strain). Nature of the test: MIC / MBC in liquid culture. In kind it is cell-based, Staphylococcus aureus. Particulars: for MIC: Staphylococcus aureus, read-out: MIC (minimal inhibitory concentration).
In test [10] the test system is MRSA 2. Nature of the test: MIC / MBC in liquid culture. The test is classed as cell-based, Staphylococcus aureus. Particulars: for MIC: Staphylococcus aureus, read-out: MIC (minimal inhibitory concentration).
In test [11] the test system is MRSA 3. Put plainly: MIC / MBC in liquid culture. In kind it is cell-based, Staphylococcus aureus. As to conditions: for MIC: Staphylococcus aureus, read-out: MIC (minimal inhibitory concentration).
Test [12] concerns E. faecalis ATCC 29212. Nature of the test: MIC / MBC in liquid culture. Particulars: for MIC: Enterococcus faecalis. The test is classed as cell-based, Enterococcus faecalis.
Test [13] deals with E. faecalis VRAS E305. Put plainly: MIC / MBC in liquid culture. The test is classed as cell-based, Enterococcus faecalis. Particulars: for MIC: Enterococcus faecalis.
The subject of test [14] is E. faecium VRAR E315. Put plainly: MIC / MBC in liquid culture. Particulars: for MIC: Enterococcus faecium. The test is classed as cell-based, Enterococcus faecium.
In test [15] the test system is B. cepacia SCV 141. Nature of the test: MIC / MBC in liquid culture. In kind it is cell-based, Burkholderia cepacia. An excerpt:
(§2) 7-O-malonyl macrolactin A was not effective against some of the gram-negative bacteria tested by the inventors.

In test [16] the test system is B. cepacia WT139. Nature of the test: MIC / MBC in liquid culture. In kind it is cell-based, Burkholderia cepacia.
Description: as §2

For test [17], the system named is L929 mouse fibroblast cells. Nature of the test: inhibition of proliferation, CyQUANT cell proliferation test. The test is classed as cell-based. As to conditions: 5 days. The protocol: The cytotoxicity of 7-O-malonyl macrolactin A was compared to that of 7-O-succinyl macrolactin A and macrolactin A in vitro with respect to the inhibition of the proliferation of L929 mouse fibroblast cells or the human epithelial cell line HeLa.
For the cell culture, the HeLa cells were cultivated in low-glucose DMEM medium (Gibco), and the L929 cells in high-glucose DMEM medium. Both were supplemented with 10% by volume foetal calf serum (Gibco) at 37° C. in an atmosphere containing 5% CO2. The cells were extracted from stock cultures by means of trypsinization with EDTA (HeLa) or without EDTA (L929), then counted and diluted to 2×10^5 cells/ml. For the tests, microtitre plates (Nunc.) comprising 96 depressions were plated out in serial dilution without or in the presence of the test compounds or methanol. Determination of morphological alterations of the cells was carried out by means of phase contrast microscopy after 1, 2 and 5 days incubation.
After 5 days cultivation, cell counts were determined by the CyQUANT cell proliferation test (Molecular Probes), which is a highly sensitive microtitre plate test based on fluorescence. The test employs the dye CyQUANT, which, by binding to cellular nucleic acids, enhances fluorescence, which can then be measured by fluorescein excitation. The emission of fluorescence by the dye-nucleic acid complex correlated linearly with the cell count. For test purposes, the residue was carefully removed after 5 days incubation, the cells washed with PBS (phosphate buffered saline solution), the buffer removed and the cells frozen at −80° C. For the test, the cells were thawed at ambient temperature and lysated in a buffered solution containing the dye CyQUANT, in accordance with manufacturer's instructions. Fluorescence was measured by means of a fluormetric microtitre-plate reader (Titertex Fluorskan II) (excitation at 480 nm, emission at 520 nm). The […] were used to calculate the percentage of cellular proliferation in medium both alone and in the presence of serial dilutions of methanol and the macrolactin compounds. […] Proliferation was measured by means of the fluorescence-based test CyQUANT for determining viable cell counts. Table 5 illustrates the relative inhibition of proliferation as compared to a control culture comprising fresh medium without the addition of a macrolactin.

[18] abbreviates: Staphylococcus aureus, MRSA, 18 h, read-out: Inhibition zone.

In brackets after ≈: the same amount, converted by molar mass. Read-outs that look alike come from different tables or passages of the source. A value given as a limit tells only on which side of the number the result lay.

For the molecule `CC[C@H]1OC(=O)[C@H](C)[C@@H](O[C@H]2C[C@@](C)(OC)[C@@H](O)[C@H](C)O2)[C@H](C)[C@@H](O[C@@H]2O[C@H](C)C[C@H](N(C)C)[C@H]2O)[C@](C)(O)C[C@@H](C)C(=O)[C@H](C)[C@@H](O)[C@]1(C)O` [Erythromycin, erythromycin], the zone of inhibition at 78 µg/disc was 0 mm in test [1] (Staphylococcus aureus, MRSA 2, MH agar, 18 hours at 37° C., per disk 10 μl crude extract, 50 μg macrolactin, 78 μg erythromycin, 30 μg vancomycin, 10 μg ampicillin); 0 mm in test [2] (Staphylococcus aureus, MRSA 3, MH agar, 18 hours at 37° C., per disk 10 μl crude extract, 50 μg macrolactin, 78 μg erythromycin, 30 μg vancomycin, 10 μg ampicillin); 40 mm in test [3] (Staphylococcus aureus, S. aureus # own collection, MH agar, 18 hours at 37° C., per disk 10 μl crude extract, 50 μg macrolactin, 78 μg erythromycin, 30 μg vancomycin, 10 μg ampicillin); 30 mm in test [4] (Staphylococcus aureus, DSMZ1104, S. aureus DSMZ 1104, MH agar, 18 hours at 37° C., per disk 10 μl crude extract, 50 μg macrolactin, 78 μg erythromycin, 30 μg vancomycin, 10 μg ampicillin); 25 mm in [5] (Enterococcus faecalis, ATCC29212, E. faecalis ATCC 29212, MH agar, 18 hours at 37° C., per disk 10 μl crude extract, 50 μg macrolactin, 78 μg erythromycin, 30 μg vancomycin, 10 μg ampicillin); 0 mm in [6] (Enterococcus faecalis, VRASE305, E. faecalis VRAS E305, MH agar, 18 hours at 37° C., per disk 10 μl crude extract, 50 μg macrolactin, 78 μg erythromycin, 30 μg vancomycin, 10 μg ampicillin). The zone of inhibition at 78 µg/disc is 25 mm in test [7] (Enterococcus faecium, VRARE315, E. faecium VRAR E315, MH agar, 18 hours at 37° C., per disk 10 μl crude extract, 50 μg macrolactin, 78 μg erythromycin, 30 μg vancomycin, 10 μg ampicillin) and 0 mm in test [8] (Burkholderia cepacia, SCV141, MH agar). Moreover, the MIC was 0.06 µg/mL (≈ 0.0818 µM) in test [9] (S. aureus #); > 128 µg/mL in test [10] (MRSA 2); > 128 µg/mL in [11] (MRSA 3); 2 µg/mL (≈ 2.73 µM) in test [12] (ATCC29212, E. faecalis ATCC 29212, read-out: MIC (minimal inhibitory concentration)); 128 µg/mL (≈ 174 µM) in [13] (VRASE305, E. faecalis VRAS E305, read-out: MIC (minimal inhibitory concentration)); 2 µg/mL (≈ 2.73 µM) in [14] (VRARE315, E. faecium VRAR E315, read-out: MIC (minimal inhibitory concentration)). In addition, the MIC is 128 µg/mL (≈ 174 µM) in test [15] (Burkholderia cepacia, SCV141, read-out: MIC (minimal inhibitory concentration)) and > 128 µg/mL in [16] (Burkholderia cepacia, read-out: MIC (minimal inhibitory concentration)).

For `CC1CCCC=CC=CC(O)CC(O)CC=CC=CC(OC(=O)CCC(=O)O)CC=CC=CC(=O)O1` (stereo not shown) [7-O-succinyl macrolactin A], the Inhibition zone is recorded as 37 mm in test [1] (MRSA 2, MH agar, 18 hours at 37° C., per disk 10 μl crude extract, 50 μg macrolactin, 78 μg erythromycin, 30 μg vancomycin, 10 μg ampicillin); 38 mm in [2] (MRSA 3, MH agar, 18 hours at 37° C., per disk 10 μl crude extract, 50 μg macrolactin, 78 μg erythromycin, 30 μg vancomycin, 10 μg ampicillin); 22 mm in test [3] (S. aureus # own collection, MH agar, 18 hours at 37° C., per disk 10 μl crude extract, 50 μg macrolactin, 78 μg erythromycin, 30 μg vancomycin, 10 μg ampicillin); 18 mm in test [4] (S. aureus DSMZ 1104, MH agar, 18 hours at 37° C., per disk 10 μl crude extract, 50 μg macrolactin, 78 μg erythromycin, 30 μg vancomycin, 10 μg ampicillin); 12 mm in test [5] (E. faecalis ATCC 29212, MH agar, 18 hours at 37° C., per disk 10 μl crude extract, 50 μg macrolactin, 78 μg erythromycin, 30 μg vancomycin, 10 μg ampicillin); “no activity” in [6] (E. faecalis VRAS E305, MH agar, 18 hours at 37° C., per disk 10 μl crude extract, 50 μg macrolactin, 78 μg erythromycin, 30 μg vancomycin, 10 μg ampicillin). In addition, the Inhibition zone was 0 mm in [6] (E. faecalis VRAS E305, MH agar, 18 hours at 37° C., per disk 10 μl crude extract, 50 μg macrolactin, 78 μg erythromycin, 30 μg vancomycin, 10 μg ampicillin, listed as 7-O-Succinyl-macrolactin A); 20 mm in test [7] (E. faecium VRAR E315, MH agar, 18 hours at 37° C., per disk 10 μl crude extract, 50 μg macrolactin, 78 μg erythromycin, 30 μg vancomycin, 10 μg ampicillin); “no activity” in test [8]; 0 mm in test [8] (listed as 7-O-Succinyl-macrolactin A). Besides, the Inhibition of proliferation in test [17] (compound concentration 3.9 μg/ml) amounted to 0%; in [17] (compound concentration 15.6 μg/ml), 0%; in [17] (compound concentration 31.25 μg/ml), 55%; in test [17] (compound concentration 56.5 μg/ml), 83%; in [17] (compound concentration 125 μg/ml), 87%.

As to `CN[C@H](CC(C)C)C(=O)N[C@H]1C(=O)N[C@@H](CC(N)=O)C(=O)N[C@H]2C(=O)N[C@H]3C(=O)N[C@H](C(=O)N[C@H](C(=O)O)c4cc(O)cc(O)c4-c4cc3ccc4O)[C@H](O)c3ccc(c(Cl)c3)Oc3cc2cc(c3O[C@@H]2O[C@H](CO)[C@@H](O)[C@H](O)[C@H]2O[C@H]2C[C@](C)(N)[C@H](O)[C@H](C)O2)Oc2ccc(cc2Cl)[C@H]1O` [Vancomycin, vancomycin], the zone of inhibition at 30 µg/disc in test [1] (setting [18]) amounted to 24 mm; in test [2] (setting [18]), 24 mm; in [3] (Staphylococcus aureus, 18 h, read-out: Inhibition zone), 27 mm; in test [4] (Staphylococcus aureus, DSMZ1104, 18 h, read-out: Inhibition zone), 20 mm; in [5] (Enterococcus faecalis, ATCC29212, 18 h, read-out: Inhibition zone) it was 24 mm; in test [6] (Enterococcus faecalis, VRASE305, 18 h, read-out: Inhibition zone), 0 mm. In [7] (Enterococcus faecium, VRARE315, 18 h, read-out: Inhibition zone), the zone of inhibition at 30 µg/disc is 0 mm. Besides, the MIC in [9] was 0.125 µg/mL (≈ 0.0863 µM); in test [10] (MRSA), 2 µg/mL (≈ 1.38 µM); in test [11] (MRSA), 1 µg/mL (≈ 0.69 µM); in test [12] (ATCC29212, read-out: MIC (minimal inhibitory concentration)), 2 µg/mL (≈ 1.38 µM); in test [13] (VRASE305, read-out: MIC (minimal inhibitory concentration)), > 128 µg/mL; in [14] (VRARE315, read-out: MIC (minimal inhibitory concentration)) it was > 128 µg/mL.

Gentamycin: the “MIC (minimal inhibitory concentration)” value amounted to 0.25 µg/mL in test [9] (S. aureus #); 128 µg/mL in [10] (MRSA 2); 128 µg/mL in test [11] (MRSA 3); 32 µg/mL in [12] (E. faecalis ATCC 29212); 64 µg/mL in [13] (E. faecalis VRAS E305); 64 µg/mL in test [14] (E. faecium VRAR E315). Also, the “MIC (minimal inhibitory concentration)” value in [15] and in test [16] was >128 µg/mL each time.
